Values after ≈ are worked out from the molar mass of the structure shown. Values joined by “and” are separate entries in the source; they are usually repeats but may differ in a detail not shown here. Equal entries are not always repeated. Where two headings read alike, the source gives them in different places.
Experiments:
[1] = tested on: Staphylococcus aureus NCTC 13373 (mecA-positive; methicillin-resistant); assay: In vitro antibacterial activity, MIC (UCL School of Pharmacy assay), MRSA; type: cell-based; conditions: for MIC: Staphylococcus aureus
Summary of the method: (§1)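 Growth inhibition was read as MIC across a two-fold range of 32 down to 0.03 μg/mL in isosensitest broth. Bacteria from overnight plates were set to A600 0.1 in PBS, about 1 × 10^8 CFU/mL, and diluted 1:100 before inoculation.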

[2] = Human plasma protein binding (PPB); type: in vitro ADME; conditions: human, plasma, human plasma, NEU
Excerpt: (§2) To guide our initial SAR exploration work, we obtained liver microsomal intrinsic clearance data for 5 of the 18 compounds assayed by CO-ADD (Supporting Information - CDCO Report and Supporting Information - Biology). We then acquired intrinsic clearance (CLint), plasma protein binding (PPB), and solubility data on further compounds throughout the SAR campaign (Supporting Information - Biology, Tables S3 and S4).
(§3) Table S4. ADME and Pharmacokinetics: compounds only appearing in the Supplementary […]
(§4) MRSA Aqueous HLM CLint Rat Hep CLint
(§5) Cmpd MIC Solubility Human PPB (%) (µL/min/mg (µL/min/10x6 LogD7.4
(§6) (µg/mL) (µM) protein) cells)
(§7) ADME and toxicity for compounds were measured according to procedures outlined in the manuscript submitted in parallel to this one;2 other procedures were used for those compounds analysed by Monash University (in vitro ADME) or UCL (toxicity), both described in the main

LogD7.4 (Chrom Log D) = type: physicochemical
Excerpt: (§8) To guide our initial SAR exploration work, we obtained liver microsomal intrinsic clearance data for 5 of the 18 compounds assayed by CO-ADD (Supporting Information - CDCO Report and Supporting Information - Biology). We then acquired intrinsic clearance (CLint), plasma protein binding (PPB), and solubility data on further compounds throughout the SAR campaign (Supporting Information - Biology, Tables S3 and S4). […] The more polar compounds (lower LogD) had reduced PPB and were more metabolically stable.
as §3, §4, §5, §6, §7

[3] = Rat hepatocyte intrinsic clearance; type: in vitro ADME
Excerpt: as §2, §3, §4, §5, §6, §7

[4] = tested on: Enterococcus faecalis ATCC 51299 (vanA-positive; vancomycin-resistant); assay: In vitro antibacterial activity, MIC (UCL), VRE; type: cell-based
Summary of the method: as §1

[5] = tested on: MRC-5SV2 (human lung fibroblast cell line); assay: Toxicity against MRC-5SV2; type: cell-based
Method: as §7

[6] = tested on: PMM (primary mouse macrophages); assay: Toxicity against PMM; type: cell-based
Method: as §7

[7] = tested on: S. aureus ATCC 25923 (methicillin-susceptible); assay: In vitro antibacterial activity, MIC (UCL), MSSA; type: cell-based, Staphylococcus aureus; conditions: for MIC: Staphylococcus aureus
Summary of the method: as §1

Aqueous solubility = type: physicochemical; conditions: thermodynamic from solid
Excerpt: as §8, §3, §4, §5, §6, §7

[8] = Human liver microsome intrinsic clearance; type: in vitro ADME
Excerpt: as §2, §3, §4, §5, §6, §7

VSE = assay: In vitro antibacterial activity, MIC, VSE; type: cell-based
[9] = read-out: Human PPB (NEU) (converted)
[10] = chromatographic system (Chrom Log D), pH 7.4, NEU, read-out: LogD 7.4 (NEU)
[11] = rat hepatocytes, NEU, read-out: Rat Hep CLint (NEU)
[12] = NEU, read-out: Aqueous Solubility (NEU)
[13] = human liver microsomes, NEU, read-out: HLM CLint (NEU)

Row | SMILES | MIC ([1]; UCL, read-out: MRSA MIC (UCL)) | fraction unbound [2, 9] | chromatographic logD (LogD7.4 (Chrom Log D); [10]) | hepatocyte CLint [3, 11] | MIC ([7]; read-out: MSSA MIC (UCL)) | solubility (Aqueous solubility; [12]) | microsomal CLint [8, 13] | MRC5 TC50 [5] | PMM TC50 [6] | MRSA MIC [1] | VRE MIC [4] | VSE MIC (VSE) | MSSA MIC [7] | other results
1 | Fc1ccc(Nc2c(-c3ccccn3)nc3sccn23)cc1 [OSA_000984] | 8 µg/mL (≈ 25.8 µM) | 0.014 | 0.9 | > 300 µL/min/1e6 cells | 4 µg/mL (≈ 12.9 µM) | 54 µM (≈ 16.8 µg/mL) | – | – | – | – | – | – | – | MIC ([4]; read-out: VRE MIC (UCL)): 8 mg/L (≈ 25.8 µM); MRC5 TC50 ([5]; MRC5 cells): 6.4 µM; PMM TC50 ([6]; PMM): 32 µM
2 | Cc1ccc(Nc2c(-c3ccccn3)nc3ccccn23)cc1 [OSA_000988] | 4 µg/mL (≈ 13.3 µM) | 0.007 | – | > 300 µL/min/1e6 cells | 4 µg/mL (≈ 13.3 µM) | – | 86.9 µL/min/mg | – | – | – | – | – | – | MIC ([4]; read-out: VRE MIC (UCL)): 16 mg/L (≈ 53.3 µM); MIC (VSE; read-out: VSE MIC (UCL)): 16 mg/L (≈ 53.3 µM)
3 | N#CCc1ccc(-n2c(-c3ccccn3)nc3ccccc32)cc1 [OSA_000996] | > 32 µg/mL | – | – | – | 32 µg/mL (≈ 103 µM) | – | – | – | – | – | – | – | – | MIC ([4]; read-out: VRE MIC (UCL)): > 32 mg/L; MRC5 TC50 ([5]; MRC5 cells): 64 µM; MIC (VSE; read-out: VSE MIC (UCL)): > 32 mg/L; PMM TC50 ([6]; PMM): 64 µM
4 | COc1ccc(-c2nc3ccc(OC)cn3c2N(C)c2ccc(F)cc2)nc1 [OSA_000999] | 8 µg/mL (≈ 21.1 µM) | 0.0063 | – | > 300 µL/min/1e6 cells | 8 µg/mL (≈ 21.1 µM) | 27 µM (≈ 10.2 µg/mL) | – | – | – | – | – | – | – | HLM CLint (NEU) ([8]; human liver microsomes, NEU): 261 uL/min/mg protein; MIC ([4]; read-out: VRE MIC (UCL)): 16 mg/L (≈ 42.3 µM); MIC (VSE; read-out: VSE MIC (UCL)): 16 mg/L (≈ 42.3 µM)
5 | COc1cccn2c(N(C)c3ccc(F)cc3)c(-c3ccccn3)nc12 [OSA_001001] | 16 µg/mL (≈ 45.9 µM) | 0.026 | 3.5 | > 300 µL/min/1e6 cells | 16 µg/mL (≈ 45.9 µM) | 26 µM (≈ 9.06 µg/mL) | 65.9 µL/min/mg | – | – | – | – | – | – | –
6 | CN(c1ccc(F)cc1)c1c(-c2ccccn2)nc2ccc(Br)cn12 [OSA_001003] | 16 µg/mL (≈ 40.3 µM) | 0.0018 | 4.2 | > 300 µL/min/1e6 cells | 16 µg/mL (≈ 40.3 µM) | 4 µM (≈ 1.59 µg/mL) | 61.6 µL/min/mg | – | – | – | – | – | – | –
7 | CSc1ccc2nc(-c3ccccn3)c(N(C)c3ccc(F)cc3)n2c1 [OSA_001004] | 8 µg/mL (≈ 22 µM) | 0.0054 | 4.5 | > 300 µL/min/1e6 cells | 8 µg/mL (≈ 22 µM) | 7 µM (≈ 2.55 µg/mL) | > 300 µL/min/mg | – | – | – | – | – | – | –
8 | CN(c1ccc(F)cc1)c1c(-c2ccccn2)nc2cccc(F)n12 [OSA_001005] | 32 µg/mL (≈ 95.1 µM) | 0.035 | 1.8 | > 300 µL/min/1e6 cells | 32 µg/mL (≈ 95.1 µM) | 64 µM (≈ 21.5 µg/mL) | 79.3 µL/min/mg | – | – | – | – | – | – | –
9 | CN(c1ccc(F)cc1)c1c(-c2ccccn2)nc2c(F)cccn12 [OSA_001006] | > 32 µg/mL | 0.034 | 3.3 | 209 µL/min/1e6 cells | > 32 µg/mL | 26 µM (≈ 8.74 µg/mL) | 127 µL/min/mg | – | – | – | – | – | – | –
10 | COc1cccc(-c2nc3ccccn3c2N(CC(C)C)c2ccc(F)cc2)n1 [OSA_001025] | – | – | > 3.7 | – | – | – | – | – | – | – | – | – | – | MIC ([1]; UCL assay, read-out: MRSA MIC (ug/mL) (UCL)): > 32 µg/mL; microsomal CLint ([8]; human liver microsomes, NEU, read-out: HLM CLint (uL/min/mg protein) (NEU)): 86.8 µL/min/mg; fraction unbound ([2]; read-out: Human PPB (%) (NEU) (converted)): < 0.01; MIC ([7]; UCL assay, read-out: MSSA MIC (ug/mL) (UCL)): > 32 µg/mL; solubility (Aqueous solubility; NEU, read-out: Aqueous Solubility (uM) (NEU)): 0.7 µM (≈ 0.273 µg/mL)
11 | Fc1ccc(-c2c(-c3ccccn3)nc3ccccn23)cc1 [compound 859] | – | – | – | – | – | – | – | 3.0 mg/L | 9.3 mg/L | – | – | – | – | activity against MRSA, in words [1]: inactive; MIC ([1]; 16 h, read-out: MRSA MIC): > 32 µg/mL; MIC ([1]; read-out: MRSA MIC): 32 µg/mL (≈ 111 µM); microsomal CLint ([8]; human, liver microsomes, read-out: HLM CLint): 168 µL/min/mg; chromatographic logD (LogD7.4 (Chrom Log D); pH 7.4, read-out: LogD7.4): 3; hepatocyte CLint ([3]; rat, hepatocytes, Figure 4, read-out: Rat Hep CLint): 49.8 µL/min/1e6 cells; MIC ([4]; read-out: VRE MIC): > 32 mg/L; solubility (Aqueous solubility; read-out: Aqueous Solubility): 178 µM (≈ 51.5 µg/mL)
12 | Fc1ccc(Nc2c(-c3ccccn3)nc3ccccn23)cc1 [compound 987] | – | – | – | – | – | – | – | 2.3 mg/L | 9.7 mg/L | – | – | – | – | MIC ([1]; read-out: MRSA MIC): 8 µg/mL (≈ 26.3 µM); MIC ([4]; read-out: VRE MIC): 32 mg/L (≈ 105 µM); MIC (VSE; read-out: VSE MIC): 32 mg/L (≈ 105 µM); MIC ([7]; read-out: MSSA MIC): 16 µg/mL (≈ 52.6 µM)
13 | NC(=O)c1ccc(-n2c(-c3ccccn3)nc3ccccc32)cc1 [compound 989] | – | – | – | – | – | – | – | 20.1 mg/L | 20.1 mg/L | > 32 mg/L and 32 mg/L | > 32 mg/L | > 32 mg/L | > 32 mg/L | –
14 | N#Cc1ccc(-n2c(-c3ccccn3)nc3ccccc32)cc1 [compound 990] | – | – | – | – | – | – | – | 19.0 mg/L | 19.0 mg/L | > 32 mg/L and 32 mg/L | > 32 mg/L | > 32 mg/L | > 32 mg/L | –
15 | c1ccc(-n2c(-c3ccccn3)nc3ccccc32)cc1 [compound 992] | – | – | – | – | – | – | – | 17.4 mg/L | 17.4 mg/L | > 32 mg/L and 32 mg/L | > 32 mg/L | > 32 mg/L | > 32 mg/L | –
16 | c1ccc(Cn2c(-c3ccccn3)nc3ccccc32)cc1 [compound 993] | – | – | – | – | – | – | – | 18.3 mg/L | 18.3 mg/L | > 32 mg/L and 32 mg/L | > 32 mg/L | > 32 mg/L | > 32 mg/L | –
17 | c1ccc(-c2nc3ccccc3n2-c2ccc(N3CCCCC3)cc2)nc1 [compound 994] | – | – | – | – | – | – | – | 7.0 mg/L | 5.4 mg/L | 16 mg/L | 32 mg/L | 32 mg/L | 32 mg/L | –
18 | c1ccc(-c2nc3ccccc3n2-c2ccc(N3CCOCC3)cc2)nc1 [compound 995] | – | – | – | – | – | – | – | 22.8 mg/L | 22.8 mg/L | > 32 mg/L and 32 mg/L | > 32 mg/L | > 32 mg/L | > 32 mg/L | –
19 | N#CCc1ccc(-n2c(-c3ccccn3)nc3ccccc32)cc1 [compound 996] | – | – | – | – | – | – | – | 19.9 mg/L | 19.9 mg/L | > 32 mg/L and 32 mg/L | > 32 mg/L | > 32 mg/L | 32 mg/L | –

Reference: publication PMC10714399, “Open Source Antibiotics: Simple Diarylimidazoles Are Potent against Methicillin-Resistant Staphylococcus aureus” (ACS Infectious Diseases, 2023)
